Experimental findings from article PMC9814544 (Communications Chemistry, 2020) are described below.

One test deals with T1, human LOX-1 receptor (Homo sapiens, UniProt P78380).
T1 construct: the cellular HTS screen was done using full-length LOX-1 and human oxLDL; expressed in transfected cells; host or cells: CHO-K1 T-REx (CHO-Trex-hLOX1 clone), vector pT-Rex-EXP-30-hLOX
As to the kind of experiment: LOX-1 cellular oxLDL uptake assay (AF594-oxLDL, CHO-Trex-hLOX1). It counts as cell-based. The text has this:
To identify small molecule inhibitors of LOX-1 mediated oxLDL uptake we developed a cellular high throughput screening (HTS) assay. Small molecule compounds were screened for their ability to block the uptake of AlexaFluor594 (AF594)-labeled human oxLDL into a CHO-K1 cell line with inducible expression of the human LOX-1 receptor. This readout was visualized and images were quantified by fluorescence microscopy (Fig. 1a). As positive controls, cells without induction of LOX-1 as well as a blocking anti-LOX-1 antibody[29] was used (Fig. 1b). More than one million different compounds were screened. Lead-like compounds (molecular weight above 270 Da) were tested at a concentration of 5 µg/ml, whereas a fragment subset (molecular weight below 270 Da) was tested at a tenfold higher concentration to ensure detection of more weakly active but ligand-efficient fragment-like compounds. Employing a hit criterion of lower than 50% of control, a hit rate of 2.8% was observed (Supplementary Fig. 1). These hits were further confirmed by performing two independent assay runs with fresh compound samples, resulting in a confirmation rate of 80% and a confirmed hit rate of 2.2% (Supplementary Fig. 2). To filter out unspecific or false-positive hits, a counter screen was developed and applied for testing the primary hits[30]–[32]. The assay format was identical to the primary assay besides employing a CHO cell line with inducible expression of human HDL scavenger receptor class B type I (SR-BI), an alternative scavenger receptor with low sequence and structural homology to human LOX-1 (Supplementary Fig. 1). Human SR-B1 is a cell surface glycoprotein most highly expressed in liver and steroidogenic tissues and plays a key role in mediating selective HDL cholesterol (HDL-C) uptake in the liver. Its regulation of HDL-C metabolism is believed to be relevant for cardiovascular health and the receptor was therefore chosen as a counter target. Using this single assay, we eliminated compounds that blocked both receptors presumably via an unspecific, non-target related mechanism (Supplementary Fig. 3).
A recombinant CHO-K1 cell line was generated to stably express human LOX-1 under control of a Tetracycline inducible promoter: using Gateway® Cloning (Invitrogen), the hLOX-1 cDNA was cloned into pT-Rex-DEST-30 thus generating pT-Rex-EXP-30-hLOX. The CHO-K1 T-REx host cell line was then transfected with the expression vector pT-Rex-EXP-30-hLOX. Stably transfected cells were selected by Geneticin resistance. Single cell clones expressing human LOX-1 upon induction with Doxycycline were isolated and the best clone selected by qRT-PCR and FACS analysis (CHO-Trex-hLOX1 cell clone). Cells expressing human SR-BI were prepared and used for the assay in a similar fashion (CHO-Trex-hSR-B1 cell line). […]

In test [1] the target is T2, human HDL scavenger receptor class B type I (SR-BI) (Homo sapiens, UniProt Q8WTV0).
T2 construct: expressed in transfected cells; host or cells: CHO T-REx (CHO-Trex-hSR-B1 cell line)
T2 sequence (Q8WTV0 1-509 isoform Q8WTV0-2): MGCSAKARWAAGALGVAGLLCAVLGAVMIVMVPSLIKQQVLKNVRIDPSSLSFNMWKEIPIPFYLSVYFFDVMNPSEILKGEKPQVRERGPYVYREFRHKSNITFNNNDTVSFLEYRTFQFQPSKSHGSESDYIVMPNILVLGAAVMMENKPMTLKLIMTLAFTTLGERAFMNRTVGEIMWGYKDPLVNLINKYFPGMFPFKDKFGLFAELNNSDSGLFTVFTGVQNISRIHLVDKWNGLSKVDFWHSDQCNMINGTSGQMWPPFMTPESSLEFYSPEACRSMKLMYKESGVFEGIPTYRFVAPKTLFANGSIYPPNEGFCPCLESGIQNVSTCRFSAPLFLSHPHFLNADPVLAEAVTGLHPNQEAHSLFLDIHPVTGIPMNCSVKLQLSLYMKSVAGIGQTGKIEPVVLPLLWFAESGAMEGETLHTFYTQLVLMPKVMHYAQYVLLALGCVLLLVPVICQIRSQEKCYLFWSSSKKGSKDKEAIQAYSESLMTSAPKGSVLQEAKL
Kind of test: SR-B1 cellular oxLDL uptake counter screen (CHO-Trex-hSR-B1). It counts as cell-based. An excerpt:
To identify small molecule inhibitors of LOX-1 mediated oxLDL uptake we developed a cellular high throughput screening (HTS) assay. Small molecule compounds were screened for their ability to block the uptake of AlexaFluor594 (AF594)-labeled human oxLDL into a CHO-K1 cell line with inducible expression of the human LOX-1 receptor. This readout was visualized and images were quantified by fluorescence microscopy (Fig. 1a). As positive controls, cells without induction of LOX-1 as well as a blocking anti-LOX-1 antibody[29] was used (Fig. 1b). More than one million different compounds were screened. Lead-like compounds (molecular weight above 270 Da) were tested at a concentration of 5 µg/ml, whereas a fragment subset (molecular weight below 270 Da) was tested at a tenfold higher concentration to ensure detection of more weakly active but ligand-efficient fragment-like compounds. Employing a hit criterion of lower than 50% of control, a hit rate of 2.8% was observed (Supplementary Fig. 1). These hits were further confirmed by performing two independent assay runs with fresh compound samples, resulting in a confirmation rate of 80% and a confirmed hit rate of 2.2% (Supplementary Fig. 2). To filter out unspecific or false-positive hits, a counter screen was developed and applied for testing the primary hits[30]–[32]. […]

Several values for one entry are separate records, joined by “and”; a condition that tells them apart may be missing. Equal values may be shown once. Read-outs that look alike come from different tables or passages of the source.

For the compound `CCCN1C(=O)c2ccc(Cl)cc2Nc2ncccc21` [BI-0115], the IC50 on human LOX-1 receptor (eight independent measurements 1-8, Supplementary Table 1, read-out: IC50 on LOX-1, individual measurements) was 7.55 µM and 7.15 µM and 3.34 µM and 2.01 µM and 5.85 µM and 6.95 µM and 5.11 µM and 4.97 µM; at human LOX-1 receptor (mean, BI-0115 n = 8, BI-1580 n = 2, inhibition of AF594-oxLDL internalization, read-out: LOX-1 IC50), 5.37 µM and 5.4 µM; on human LOX-1 receptor (single curve of Fig. 1c, n = 2 per concentration, R^2 = 0.98, read-out: IC50, representative concentration response curve) it was 7.2 µM; in test [1] (eight independent measurements 1-8, Supplementary Table 2, read-out: IC50 on SR-B1, individual measurements) it was 88.8 µM and > 54.2 µM and > 100 µM (4×) and > 172 µM (2×). The “extent of inhibition of oxLDL uptake in the cellular context” value at human LOX-1 receptor (in words, reply to reviewers) is given as “full inhibition”. Besides, the “activity in the SR-B1 assay” value in test [1] (in words) is “no activity”.
